# Strand notation (5' to 3'): a small letter for the sugar, then the base; units joined by * are phosphorothioate-linked, units joined directly phosphodiester-linked; [ ] holds rarer units or linkages, { } end groups; capitals alone tell only the bases. e = 2'-O-(2-methoxyethyl) (MOE); [5mC] = 5-methylcytosine; d = 2'-deoxy (DNA)
# Key:
# [1] = tested on: Mouse B7-1 mRNA; test: Mouse B7-1 mRNA expression, screened as in Example 4; assay type: cell-based; parameters: % mRNA INHIBITION: concentration or dose not given beside the values; conditions: Table 10
# [2] = tested on: murine B7-1; test: Murine B7-1 cell surface expression in transfected COS-7 cells by flow cytometry; assay type: cell-based; conditions: mouse B7-1 cell surface expression, basal = 100%
# Excerpt: (§1) Oligonucleotides (see Table 4) capable of inhibiting expression of murine B7-2 transiently expressed in COS-7 cells were identified in the following manner. A series of phosphorothioate oligonucleotides complementary to murine B7-2 (mB7-2) cDNA were screened for their ability to reduce mB7-2 levels (measured by flow cytometry as in Example 2, except that a conjugated anti-mB7-2 antibody (i.e., anti-mCD86-PE, PharMingen, San Diego, Calif.) in COS-7 cells transfected with an mB7-2 cDNA clone. Anti-mB7-2 antibody may also be obtained from the hybridoma deposited at the ATCC under accession No. HB-253. Oligonucleotides (see Table 2) capable of modulating murine B7-1 expression are isolated in like fashion, except that a conjugated anti-mB7-1 antibody is used in conjunction with COS-7 cells transfected with an mB7-1 cDNA clone.
# (§2) B7 antisense oligonucleotides were tested for their effect on cell surface expression of both B7-1 and B7-2. Cell surface expression was measured as described in Example 1. Experiments were done for both human B7 and mouse B7.
# [3] = tested on: murine B7-2 (mB7-2); test: Murine B7-2 cell surface expression in transfected COS-7 cells by flow cytometry; assay type: cell-based, mouse
# Excerpt: as §1, §2
# [4] = tested on: DBA/1LacJ mice with collagen-induced arthritis; test: Collagen-induced arthritis (CIA) murine model; assay type: in vivo, mouse; conditions: CIA in DBA/1LacJ mice
# Protocol: Collagen-induced arthritis (CIA) was used as a murine model for arthritis (Mussener, A., et al., Clin. Exp. Immunol., 1997, 107, 485-493). Female DBA/1LacJ mice (Jackson Laboratories, Bar Harbor, Me.) between the ages of 6 and 8 weeks were used to assess the activity of B7-1 antisense oligonucleotides.
# On day 0, the mice were immunized at the base of the tail with 100 μg of bovine type II collagen which is emulsified in Complete Freund's Adjuvant (CFA). On day 7, a second booster dose of collagen was administered by the same route. On day 14, the mice were injected subcutaneously with 100 μg of LPS. Oligonucleotide was administered intraperitoneally daily (10 mg/kg bolus) starting on day −3 (three days before day 0) and continuing for the duration of the study. Oligonucleotide 17456 (SEQ ID NO. 173) is a fully phosphorothioated analog of 18122.
# Weights were recorded weekly. Mice were inspected daily for the onset of CIA. Paw widths are rear ankle widths of affected and unaffected joints were measured three times a week using a constant tension caliper. Limbs were clinically evaluated and graded on a scale from 0-4 (with 4 being the highest).
# [5] = tested on: murine B7-2 (mB7-2); test: mB7-2 cell surface expression in LPS-induced IC-21 cells by flow cytometry; assay type: cell-based, mouse; conditions: FIG. 9; for levels of induced mB7-2 expression: 3 μM; for reduction in the level of induced mB7-2 expression: 10 μM
# Protocol: In order to further evaluate the murine B7-2 antisense oligonucleotides, the IC-21 cell line was used. IC-21 monocyte/macrophage cell line expresses both B7-1 and murine B7-2 (mB7-2) constitutively. A 2-fold induction of expression can be achieved by incubating the cells in the presence of lipopolysaccharide (LPS; GIBCO-BRL, Gaithersburg, Md.) (Hathcock et al., Science, 1993, 262, 905).
# IC-21 cells (ATCC; accession No. TIB 186) were seeded at 80% confluency in 12-well plates in DMEM media with 10% FCS. The cells were allowed to adhere to the plate overnight. The following day, the medium was removed and the cells were washed with PBS. Then 500 μL of OptiMEM™ (GIBCO-BRL, Gaithersburg, Md.) supplemented with 15 μg/mL of Lipofectin™ (GIBCO-BRL, Gaithersburg, Md.) was added to each well. Oligonucleotides were then added directly to the medium at the indicated concentrations. After incubation for 4 hours, the cells were washed with PBS and incubated overnight in culture medium supplemented with 15 μg/mL of LPS. The following day, cells were harvested by scraping, then analyzed for cell surface expression by flow cytometry.
# [6] = tested on: BALB/c mice with heart allograft; test: Murine heart allograft rejection model; assay type: in vivo, mouse
# Protocol: A murine model for evaluating compounds for their ability to inhibit heart allograft rejection has been previously described (Stepkowski et al., J. Immunol., 1994, 153, 5336). This model was used to evaluate the immunosuppressive capacity of antisense oligonucleotides to B7 proteins alone or in combination with antisense oligonucleotides to intercellular adhesion molecule-1 (ICAM-1).
# Heart allograft rejection studies and oligonucleotide treatments of BALB/c mice were performed essentially as previously described (Stepkowski et al., J. Immunol., 1994, 153, 5336). Antisense oligonucleotides used included ISIS 11696, ISIS 3082 (targeted to ICAM-1) and ISIS 1082 (a control oligonucleotide targeted to the herpes virus UL-13 gene sequence). Dosages used were 1, 2, 2.5, 5 or 10 mg/kg of individual oligonucleotide (as indicated below); when combinations of oligonucleotides were administered, each oligonucleotide was given at a dosage of 1, 5 or 10 mg/kg (total oligonucleotide dosages of 2, 10 and 20 mg/kg, respectively). The survival times of the transplanted hearts and their hosts were monitored and recorded.
# [7] = tested on: CD4+ T cells; test: T cell proliferation assay, [3H]thymidine incorporation, oligonucleotide-treated APCs plus CD4+ T cells; assay type: cell-based, human; conditions: APCs treated before cytokine induction; FIG. 7
# Protocol: The ability of ISIS 2302 and ISIS 10373 to inhibit T cell proliferation was evaluated as follows. Monocytes treated with oligonucleotide and cytokines (as in Example 6) were used as antigen presenting cells in a T cell proliferation assay. The differentiated monocytes were combined with CD4+ T cells from a separate donor. After 48 hours, proliferation was measured by [^3H]thymidine incorporation.
# For T cell proliferation assays, cells were isolated from EDTA-treated whole blood as described above, except that a faster migrating band containing the lymphocytes was harvested from just below the interface. Cells were washed as described in Example 6 after which erythrocytes were removed by NH4Cl lysis. T cells were purified using a T cell enrichment column (R&D Systems, Minneapolis, Minn.) essentially according to the manufacturer's directions. CD4+ T cells were further enriched from the entire T cell population by depletion of CD8+ cells with anti-CD8-conjugated magnetic beads (AMAC, Inc., Westbrook, Me.) according to the manufacturer's directions. T cells were determined to be >80% CD4+ by flow cytometry using Cy-chrome-conjugated anti-CD4 mAb (PharMingen, San Diego, Calif.).
# Antigen presenting cells (APCs) were isolated as described in Example 6 and treated with mitomycin C (25 μg/mL) for 1 hour then washed 3 times with PBS. APCs (10^5 cells) were then combined with 4×10^4 CD4+ T cells in 350 μL of culture media. Where indicated, purified CD3 mAb was also added at a concentration of 1 μg/mL. During the last 6 hours of the 48 hour incubation period, proliferation was measured by determining uptake of 1.5 μCi of [^3H]-thymidine per well. The cells were harvested onto filters and the radioactivity measured by scintillation counting.
# [8] = tested on: B7-2; test: B7-2 expression in antigen presenting cells (blood monocytes with IL-4 and GM-CSF), flow cytometry; assay type: cell-based, human; conditions: FIG. 6
# Protocol: The ability of ISIS 10373 to inhibit expression from the native B7-2 gene in antigen presenting cells (APCs) was evaluated as follows.
# Monocytes were cultured and treated with oligonucleotides as follows. For dendritic cells, EDTA-treated blood was layered onto Polymorphprep™ (1.113 g/mL; Nycomed, Oslo, Norway) and sedimented at 500×g for 30 minutes at 20° C. Mononuclear cells were harvested from the interface. Cells were washed with PBS, with serum-free RPMI media (Moore et al., N.Y. J. Med., 1968, 68, 2054) and then with RPMI containing 5% fetal bovine serum (FBS). Monocytes were selected by adherence to plastic cell culture cell culture dishes for 1 h at 37° C. After adherence, cells were treated with oligonucleotides in serum-free RPMI containing Lipofectin™ (8 μg/mL). After 4 hours, the cells were washed. […] Cells were incubated for 48 hours, after which cell surface expression of various molecules was measured by flow cytometry.
# (§3) Mononuclear cells isolated from fresh blood were treated with oligonucleotide in the presence of cationic lipid to promote cellular uptake. […] Expression of B7-2 protein was measured by flow cytometry according to the methods of Example 2. […]
# [9] = tested on: ICAM-1; test: ICAM-1 expression in antigen presenting cells, flow cytometry; assay type: cell-based, human; conditions: antigen presenting cells; FIG. 6; read-out: IC50, ICAM-1 levels
# Protocol: Monocytes were cultured and treated with oligonucleotides as follows. For dendritic cells, EDTA-treated blood was layered onto Polymorphprep™ (1.113 g/mL; Nycomed, Oslo, Norway) and sedimented at 500×g for 30 minutes at 20° C. Mononuclear cells were harvested from the interface. Cells were washed with PBS, with serum-free RPMI media (Moore et al., N.Y. J. Med., 1968, 68, 2054) and then with RPMI containing 5% fetal bovine serum (FBS). Monocytes were selected by adherence to plastic cell culture cell culture dishes for 1 h at 37° C. After adherence, cells were treated with oligonucleotides in serum-free RPMI containing Lipofectin™ (8 μg/mL). After 4 hours, the cells were washed. Then RPMI containing 5% FBS and oligonucleotide was added to cells along with interleukin-4 (IL-4; R&D Systems, Minneapolis, Minn.) (66 ng/mL) and granulocyte-macrophage colony-stimulating factor (GM-CSF; R&D Systems, Minneapolis, Minn.) (66 ng/mL) to stimulate differentiation (Romani et al., J. Exp. Med., 1994, 180, 83, 1994). Cells were incubated for 48 hours, after which cell surface expression of various molecules was measured by flow cytometry.
# as §3
# [10] = tested on: human B7-2; test: Cell surface expression of B7-2 in transfected COS-7 cells by flow cytometry; assay type: cell-based; conditions: 200 nM; FIG. 3
# Procedure, shortened: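 COS-7 cells transfected with B7-2 plasmid (calcium phosphate), then treated with antisense oligonucleotides with 15 μg/mL Lipofectin for 4 h, followed by oligonucleotide in DMEM/10% FCS. After 24-48 h, cells stained with FITC- or PE-conjugated anti-CD86 for 30 min at 4 °C and analysed by flow cytometry.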
substance,measurement,setting,value
18110 (antisense eA*eT*eG*eA*eG*dG*dA*dG*dA*dG*dT*dT*dG*dT*dA*eA*e[5mC]*eG*eG*e[5mC]) [compound 18110],% mRNA EXPRESSION,[1],21.0%
same,% mRNA INHIBITION,[1],79.0%
same,% B7-1 EXPRESSION,[2],31%
same,% B7-2 EXPRESSION,[3]; mouse B7-2 cell surface expression,93%
same,% Incidence,"[4]; 10 mg/kg intraperitoneally daily from day -3, control 70%",55.6%
same,Peak day (day from onset of maximum swelling for each joint measure),"[4]; 10 mg/kg intraperitoneally daily, control 6.7 ± 2.9",2.0 ± 0.8 days
same,Severity (total clinical score divided by the total number of mice in the group),"[4]; 10 mg/kg intraperitoneally daily, limbs graded 0-4, control 3.2 ± 1.1",2.0 ± 1.3
"CTA-AGT-AGT-GCT-AGC-CGG-GA (antisense CTAAGTAGTGCTAGCCGGGA; listed as DNA, chemistry not given here) [ISIS 11866, scrambled # 11696, reference compound]",levels of induced mB7-2 expression,[5],little effect
same,reduction in the level of induced mB7-2 expression,[5],40%
same,inhibition of murine B7-2 cell surface expression,[3]; highest concentration tested (1000 nM),less than 20%
GGA-TTG-CCA-AGC-CCA-TGG-TG (GGATTGCCAAGCCCATGGTG; chemistry not given here) [ISIS 11696],levels of induced mB7-2 expression,[5],greatly reduced
same,reduction in the level of induced mB7-2 expression,[5],inhibited mB7-2 expression completely
same,IC50,"[3]; COS-7 cells, FIG. 8",200 to 300 nM
same,mean survival time,[6]; 2 mg/kg/day for 7 days,9.3 ± 0.6 days
same,mean survival time,[6]; 10 mg/kg/day for 7 days,9.3 ± 1.3 days
"ISIS 2302: antisense oligonucleotide targeted to ICAM-1, an inhibitor of ICAM-1 expression; SEQ ID NO: 17 (antisense GCCCAAGCTGGCATCCGTCA; listed as DNA, chemistry not given here) [reference compound]",T cell proliferative response,[7],blocked
same,effect on B7-2 expression,[8],no effect
same,IC50,[9],~250 nM
ISIS 10721: scrambled # 10373; SEQ ID NO: 82 (antisense dC*dG*dA*dC*dA*dG*dC*dT*dC*dC*dT*dG*dC*dG*dC*dT*dC*dC*dT*dC) [reference compound],T cell proliferative response,[7],insignificant effect
same,inhibitory activity on B7-2 cell surface expression,[10],no inhibitory activity

# From US7897582B2, “Oligonucleotide compositions and methods for the modulation of the expression of B7 protein” (Isis Pharmaceuticals, Inc., priority 2003, dated 2011)
